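The compound was tested at five concentrations on cells cultured in 96-well plates, with a 48-hour exposure period. Abbreviation: GI50, concentration required for 50% inhibition of growth.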 The source made the active and inactive calls. No stated cut-off is given here; in the data, active = GI50 up to about 1.1 µM and inactive = higher.
Legend:
Assay in all cases: NCI tumour cell line growth inhibition, 48 h
HOP-92 = test system: HOP-92
DU-145 = test system: DU-145
TK-10 = test system: TK-10
NCI-H226 = test system: NCI-H226
HL-60 = test system: HL-60
786-0 = test system: 786-0
CCRF-CEM = test system: CCRF-CEM
A498 = test system: A498
K562 = test system: K562
HOP-62 = test system: HOP-62
OVCAR-4 = test system: OVCAR-4
MDA-MB-231 = test system: MDA-MB-231
KM12 = test system: KM12
M14 = test system: M14
PC-3 = test system: PC-3
SNB-75 = test system: SNB-75
UACC-62 = test system: UACC-62
SK-MEL-5 = test system: SK-MEL-5
SK-MEL-2 = test system: SK-MEL-2
BT-549 = test system: BT-549
COLO 205 = test system: COLO 205
OVCAR-8 = test system: OVCAR-8
CAKI-1 = test system: CAKI-1
T47D = test system: T47D
UO-31 = test system: UO-31
U-251 = test system: U-251
MDA-N = test system: MDA-N
SK-OV-3 = test system: SK-OV-3
MDA-MB-435 = test system: MDA-MB-435
SF-295 = test system: SF-295
SW-620 = test system: SW-620
LOX IMVI = test system: LOX IMVI
IGROV-1 = test system: IGROV-1
NCI-H460 = test system: NCI-H460
MCF7 = test system: MCF7
ACHN = test system: ACHN
SR = test system: SR
A549 = test system: A549
NCI-H23 = test system: NCI-H23
SN12C = test system: SN12C
HCT-116 = test system: HCT-116
EKVX = test system: EKVX
OVCAR-5 = test system: OVCAR-5
Malme-3M = test system: Malme-3M
SNB-19 = test system: SNB-19
HCT-15 = test system: HCT-15
SK-MEL-28 = test system: SK-MEL-28
SF-539 = test system: SF-539
NCI/ADR-RES = test system: NCI/ADR-RES
OVCAR-3 = test system: OVCAR-3
HCC 2998 = test system: HCC 2998
UACC-257 = test system: UACC-257
HT-29 = test system: HT-29
MOLT-4 = test system: MOLT-4
Hs-578T = test system: Hs-578T
SF-268 = test system: SF-268
NCI-H522 = test system: NCI-H522
RPMI-8226 = test system: RPMI-8226

With `COc1cc2c(cc1OC)CN1CCc3ccccc3CC1C2` (stereo not drawn) the GI50 (HOP-92) was 12.5 µM (inactive), the GI50 (DU-145) was 37.6 µM (inactive) and the GI50 (TK-10) was 13.7 µM (inactive). For the same compound, the GI50 (NCI-H226) was 42.1 µM (inactive), the GI50 (HL-60) was 27.2 µM (inactive) and the GI50 (786-0) was 36.3 µM (inactive). For the same compound, the GI50 (CCRF-CEM) was 36.9 µM (inactive), the GI50 (A498) was 43.3 µM (inactive) and the GI50 (K562) was 32.9 µM (inactive). For the same compound, the GI50 (HOP-62) was 65.8 µM (inactive), the GI50 (OVCAR-4) was 16.1 µM (inactive) and the GI50 (MDA-MB-231) was > 100 µM (inactive). For the same compound, the GI50 (KM12) was 33.1 µM (inactive), the GI50 (M14) was 30.1 µM (inactive) and the GI50 (PC-3) was 41.7 µM (inactive). For the same compound, the GI50 (SNB-75) was 29 µM (inactive), the GI50 (UACC-62) was 23.6 µM (inactive) and the GI50 (SK-MEL-5) was 27.1 µM (inactive). For the same compound, the GI50 (SK-MEL-2) was 34.3 µM (inactive), the GI50 (BT-549) was 31.3 µM (inactive) and the GI50 (COLO 205) was 25.1 µM (inactive). The GI50 (OVCAR-8) was 44.1 µM (inactive), the GI50 (CAKI-1) was 42.4 µM (inactive) and the GI50 (T47D) was 22.5 µM (inactive). For the same compound, the GI50 (UO-31) was 22.9 µM (inactive), the GI50 (U-251) was 93.1 µM (inactive) and the GI50 (MDA-N) was 44.1 µM (inactive). For the same compound, the GI50 (SK-OV-3) was 53.5 µM (inactive), the GI50 (MDA-MB-435) was 86.5 µM (inactive) and the GI50 (SF-295) was 34.6 µM (inactive). The GI50 (SW-620) was 37.8 µM (inactive), the GI50 (LOX IMVI) was 39 µM (inactive) and the GI50 (IGROV-1) was 17.5 µM (inactive). For the same compound, the GI50 (NCI-H460) was 26.3 µM (inactive), the GI50 (MCF7) was 25.6 µM (inactive) and the GI50 (ACHN) was 22.6 µM (inactive). For the same compound, the GI50 (SR) was 0.208 µM (active), the GI50 (A549) was 49.7 µM (inactive) and the GI50 (NCI-H23) was 31.9 µM (inactive). The GI50 (SN12C) was 40.7 µM (inactive), the GI50 (HCT-116) was 23.8 µM (inactive) and the GI50 (EKVX) was 47.3 µM (inactive). For the same compound, the GI50 (OVCAR-5) was > 100 µM (inactive), the GI50 (Malme-3M) was 25.8 µM (inactive) and the GI50 (SNB-19) was 52 µM (inactive). For the same compound, the GI50 (HCT-15) was 39.4 µM, the GI50 (SK-MEL-28) was 63.1 µM (inactive) and the GI50 (SF-539) was 34.4 µM (inactive). The GI50 (NCI/ADR-RES) was 54.7 µM (inactive), the GI50 (OVCAR-3) was 97.5 µM (inactive) and the GI50 (HCC 2998) was 28.8 µM (inactive). The GI50 (UACC-257) was 51.4 µM (inactive), the GI50 (HT-29) was 12.6 µM (inactive) and the GI50 (MOLT-4) was 28.8 µM (inactive). For the same compound, the GI50 (Hs-578T) was > 100 µM (inactive).

`CC(C)(C)c1cc(O)ccc1O` [E319] was tested, and the GI50 (HOP-92) was > 67.5 µM (inactive), the GI50 (DU-145) was 10.1 µM (inactive) and the GI50 (TK-10) was 8.32 µM (inactive). For the same compound, the GI50 (NCI-H226) was > 65.5 µM (inactive), the GI50 (HL-60) was 9.73 µM (inactive) and the GI50 (786-0) was > 54.8 µM (inactive). For the same compound, the GI50 (CCRF-CEM) was 4.92 µM (inactive), the GI50 (A498) was > 100 µM (inactive) and the GI50 (K562) was > 68.5 µM (inactive). The GI50 (HOP-62) was > 100 µM (inactive), the GI50 (OVCAR-4) was > 56.4 µM (inactive) and the GI50 (MDA-MB-231) was 1.86 µM (inactive). For the same compound, the GI50 (KM12) was > 100 µM (inactive), the GI50 (SF-268) was > 18.7 µM (inactive) and the GI50 (M14) was > 100 µM (inactive). The GI50 (PC-3) was 1.57 µM (inactive), the GI50 (SNB-75) was 7.71 µM (inactive) and the GI50 (UACC-62) was > 100 µM (inactive). For the same compound, the GI50 (SK-MEL-5) was > 100 µM (inactive), the GI50 (SK-MEL-2) was 1.71 µM (inactive) and the GI50 (BT-549) was > 100 µM (inactive). For the same compound, the GI50 (COLO 205) was > 74.6 µM (inactive), the GI50 (OVCAR-8) was > 63.7 µM (inactive) and the GI50 (CAKI-1) was > 57.8 µM (inactive). The GI50 (T47D) was 3.83 µM (inactive), the GI50 (UO-31) was > 58.6 µM (inactive) and the GI50 (U-251) was 0.675 µM (active). For the same compound, the GI50 (MDA-N) was > 100 µM (inactive), the GI50 (SK-OV-3) was > 100 µM (inactive) and the GI50 (MDA-MB-435) was > 56.8 µM (inactive). The GI50 (SF-295) was > 100 µM (inactive), the GI50 (SW-620) was 37.8 µM (inactive) and the GI50 (LOX IMVI) was > 59.3 µM (inactive). For the same compound, the GI50 (IGROV-1) was > 100 µM (inactive), the GI50 (NCI-H460) was > 12.8 µM (inactive) and the GI50 (MCF7) was > 100 µM (inactive). For the same compound, the GI50 (NCI-H522) was 5.57 µM (inactive), the GI50 (ACHN) was > 85.5 µM (inactive) and the GI50 (SR) was 1.1 µM (active). The GI50 (A549) was > 100 µM (inactive), the GI50 (NCI-H23) was > 100 µM (inactive) and the GI50 (SN12C) was > 100 µM (inactive). For the same compound, the GI50 (HCT-116) was > 57.9 µM (inactive), the GI50 (EKVX) was > 100 µM (inactive) and the GI50 (OVCAR-5) was > 100 µM (inactive). The GI50 (Malme-3M) was > 19.3 µM (inactive), the GI50 (SNB-19) was > 100 µM (inactive) and the GI50 (HCT-15) was greater than 100 µM. The GI50 (RPMI-8226) was 38.2 µM (inactive), the GI50 (SK-MEL-28) was > 100 µM (inactive) and the GI50 (SF-539) was > 100 µM (inactive). For the same compound, the GI50 (NCI/ADR-RES) was > 79.6 µM (inactive), the GI50 (OVCAR-3) was 43.6 µM (inactive) and the GI50 (HCC 2998) was > 10.5 µM (inactive). The GI50 (UACC-257) was 9.08 µM (inactive), the GI50 (HT-29) was > 100 µM (inactive) and the GI50 (MOLT-4) was 10.3 µM (inactive). The GI50 (Hs-578T) was > 24 µM (inactive).
